One experiment deals with H3K27Ac. Description: Intracellular H3K27Ac inhibitory activity in LK2 cells (Test Example 2). As to conditions: Homo sapiens, LK-2, cultured with compound for 3 hours, read-out: Test Example 2 H3K27Ac Inhibition (LK2) IC50. The experiment is classed as cell-based. The method, then:
[Test Example 2] Evaluation of Intracellular H3K27Ac Inhibitory Activity
LK2 cells derived from human squamous cell lung cancer were seeded in a 96 well plate at 40000 cells/100 μL/well, and were cultured overnight at 37° C. in 5% CO2. The LK2 cells were purchased from Human Science Research Resources Bank. […] The supernatant was discarded, 4% paraformaldehyde was added thereto at 100 μL/well, and the resultant was allowed to stand still at room temperature for 15 minutes. The 4% paraformaldehyde was discarded, and the resultant was washed with PBS-T. A quenching buffer (PBS-T containing 1% H2O2) was added thereto at of 100 μL/well, and the resultant was allowed to stand still at room temperature for 10 minutes. The resultant was washed with PBS-T, a blocking buffer (StartingBlocK T20 (TBS) Blocking Buffer (Thermo […], #37543)) was added thereto at 200 μL/well, and the resultant was allowed to stand still at room temperature for 1 hour. The supernatant was discarded, Acetyl-Histone H3 (Lys27) (D5E4) XP (registered trademark) Rabbit mAb (cell Signaling, #8173) diluted with a blocking buffer was added thereto at 50 μL/well, and the resultant was allowed to stand still at 4° C. overnight. The resultant was washed with PBS-T, Anti-Rabbit IgG-HRP (Cell Signaling, #7074S) diluted with a blocking buffer was added thereto at 50 μL/well, and the resultant was cultured at room temperature for 1 hour. The resultant was washed with PBS-T, SuperSignal (registered trademark) ELISA Pico Chemiluminescent Substrate (Thermo […], #37069) was added thereto at 50 μL/well, and a signal was measured using EnVision.

The target of another experiment is EP300 (Homo sapiens, UniProt Q09472). Description: Histone acetyltransferase inhibitory activity against EP300 (Test Example 1). It is filed as biochemical. As to conditions: 50 ng/mL EP300, 2 μM Acetyl-CoA, 100 nM Histone H4(1-25)-GSGSK (Biotin), 28° C. for 1 hour. The method, then: (§1) [Test Example 1] Evaluation of Histone
Chain of EP300 (Q09472 whole entry): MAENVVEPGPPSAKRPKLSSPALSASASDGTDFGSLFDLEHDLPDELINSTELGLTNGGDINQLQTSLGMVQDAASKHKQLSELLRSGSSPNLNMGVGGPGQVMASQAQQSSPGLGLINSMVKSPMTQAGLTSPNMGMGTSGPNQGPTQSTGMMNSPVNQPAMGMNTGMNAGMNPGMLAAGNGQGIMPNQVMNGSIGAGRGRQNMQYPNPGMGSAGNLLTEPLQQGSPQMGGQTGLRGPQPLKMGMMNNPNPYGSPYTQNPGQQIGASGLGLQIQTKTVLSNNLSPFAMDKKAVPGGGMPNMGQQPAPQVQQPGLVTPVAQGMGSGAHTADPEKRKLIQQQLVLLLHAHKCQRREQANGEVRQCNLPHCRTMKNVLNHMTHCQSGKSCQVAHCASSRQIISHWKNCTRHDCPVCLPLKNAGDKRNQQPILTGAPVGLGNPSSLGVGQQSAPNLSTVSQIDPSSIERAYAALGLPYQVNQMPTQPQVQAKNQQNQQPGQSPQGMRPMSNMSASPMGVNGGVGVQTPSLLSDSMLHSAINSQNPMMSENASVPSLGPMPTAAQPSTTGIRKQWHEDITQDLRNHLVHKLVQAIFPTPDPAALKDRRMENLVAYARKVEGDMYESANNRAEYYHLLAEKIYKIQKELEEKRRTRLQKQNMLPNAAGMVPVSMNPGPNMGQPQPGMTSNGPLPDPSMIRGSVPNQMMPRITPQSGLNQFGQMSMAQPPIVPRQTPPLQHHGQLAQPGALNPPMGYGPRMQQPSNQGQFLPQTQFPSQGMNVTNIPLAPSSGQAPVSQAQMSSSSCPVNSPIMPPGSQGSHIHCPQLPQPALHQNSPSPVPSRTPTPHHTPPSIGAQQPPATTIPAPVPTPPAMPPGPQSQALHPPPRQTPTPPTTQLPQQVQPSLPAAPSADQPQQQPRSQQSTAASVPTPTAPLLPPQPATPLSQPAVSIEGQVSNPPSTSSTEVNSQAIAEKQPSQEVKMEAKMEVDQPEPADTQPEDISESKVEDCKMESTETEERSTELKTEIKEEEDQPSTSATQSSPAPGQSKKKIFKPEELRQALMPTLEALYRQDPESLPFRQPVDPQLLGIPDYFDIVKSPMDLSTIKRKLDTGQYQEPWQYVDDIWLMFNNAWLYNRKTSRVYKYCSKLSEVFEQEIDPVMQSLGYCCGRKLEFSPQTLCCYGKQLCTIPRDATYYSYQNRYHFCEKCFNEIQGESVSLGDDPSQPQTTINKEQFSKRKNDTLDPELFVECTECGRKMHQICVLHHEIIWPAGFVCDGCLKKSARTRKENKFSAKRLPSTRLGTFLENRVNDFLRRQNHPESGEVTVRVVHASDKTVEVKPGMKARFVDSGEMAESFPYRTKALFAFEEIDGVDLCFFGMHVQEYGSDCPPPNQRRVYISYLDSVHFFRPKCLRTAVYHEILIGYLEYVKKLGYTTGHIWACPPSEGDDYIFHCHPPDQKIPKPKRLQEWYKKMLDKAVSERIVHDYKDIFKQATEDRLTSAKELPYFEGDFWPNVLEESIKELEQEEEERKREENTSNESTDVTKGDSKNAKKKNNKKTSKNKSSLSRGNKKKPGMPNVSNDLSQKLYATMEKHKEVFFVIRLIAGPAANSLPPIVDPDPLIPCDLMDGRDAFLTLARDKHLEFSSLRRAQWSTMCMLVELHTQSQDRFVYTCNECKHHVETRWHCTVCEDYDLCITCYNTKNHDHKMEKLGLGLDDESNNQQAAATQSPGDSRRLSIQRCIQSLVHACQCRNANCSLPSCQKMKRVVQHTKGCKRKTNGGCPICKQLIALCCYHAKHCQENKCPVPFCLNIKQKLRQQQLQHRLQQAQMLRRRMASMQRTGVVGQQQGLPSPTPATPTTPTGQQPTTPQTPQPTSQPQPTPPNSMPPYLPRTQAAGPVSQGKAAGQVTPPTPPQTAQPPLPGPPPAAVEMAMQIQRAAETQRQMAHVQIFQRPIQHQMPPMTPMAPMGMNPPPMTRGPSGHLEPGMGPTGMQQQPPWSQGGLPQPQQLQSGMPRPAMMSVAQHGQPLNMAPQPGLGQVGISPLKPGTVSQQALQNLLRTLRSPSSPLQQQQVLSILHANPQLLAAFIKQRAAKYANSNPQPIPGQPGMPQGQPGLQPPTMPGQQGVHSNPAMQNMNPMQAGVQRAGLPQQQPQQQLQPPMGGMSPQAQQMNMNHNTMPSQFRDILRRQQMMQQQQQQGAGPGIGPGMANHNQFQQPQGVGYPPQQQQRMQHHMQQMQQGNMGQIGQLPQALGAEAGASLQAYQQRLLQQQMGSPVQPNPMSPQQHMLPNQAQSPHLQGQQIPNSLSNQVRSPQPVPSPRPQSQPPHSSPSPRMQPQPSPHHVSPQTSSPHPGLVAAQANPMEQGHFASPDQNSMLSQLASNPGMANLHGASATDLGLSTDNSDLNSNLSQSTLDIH
(§2) Acetyltransferase Inhibitory Activity against EP300 and CREBBP
(§3) 10 μL each of reaction solutions each containing a different concentration of the compound of each of Examples 1 to 108b (50 mM Tris-HCl (pH8.0), 0.1 mM EDTA, 1 mM dithiothreitol, 0.01% Tween-20, 0.01% Bovine serum albumin, 330 nM trichostatin A, 2 μM Acetyl-CoA (Sigma-Aldrich, #A2056), 100 nM Histone H4(1-25)-GSGSK (Biotin) (Anaspec, #65242-1), 1% dimethyl sulfoxide, 10 to 0.0006 μM of each compound, 50 ng/mL EP300 or 125 ng/mL CREBBP) was added to respective wells of a 384-well plate, and cultured at 28° C. for 1 hour. Thereafter, 5 μL of 30 μM Lys-CoA (Daiichi Sankyo Co., Ltd.) dissolved in LANCE detection buffer (Perkin Elmer Co., Ltd., #CR97-100) was added to each well. Furthermore, 5 μL of LANCE detection buffer containing 2 nM Eu-anti pan-Ac (Perkin Elmer Co., Ltd., #TRF0412) and 50 nM Sta-Ulight (Perkin Elmer Co., Ltd., #TRF0102) was added to each well, and the resultant was cultured at room temperature overnight. EnVision (Perkin Elmer Co., Ltd., Model 2104-0020) was used to measure ULight signals. […] EP300 and CREBBP were produced and purified by Daiichi Sankyo RD Novare Co., Ltd.

For a further experiment, the target named is CREBBP (Homo sapiens, UniProt Q92793). Description: Histone acetyltransferase inhibitory activity against CREBBP (Test Example 1). It is filed as biochemical. As to conditions: 125 ng/mL CREBBP, 2 μM Acetyl-CoA, 100 nM Histone H4(1-25)-GSGSK (Biotin), 28° C. for 1 hour. The method, then:
as §1, §2, §3

Chain of CREBBP (Q92793 whole entry): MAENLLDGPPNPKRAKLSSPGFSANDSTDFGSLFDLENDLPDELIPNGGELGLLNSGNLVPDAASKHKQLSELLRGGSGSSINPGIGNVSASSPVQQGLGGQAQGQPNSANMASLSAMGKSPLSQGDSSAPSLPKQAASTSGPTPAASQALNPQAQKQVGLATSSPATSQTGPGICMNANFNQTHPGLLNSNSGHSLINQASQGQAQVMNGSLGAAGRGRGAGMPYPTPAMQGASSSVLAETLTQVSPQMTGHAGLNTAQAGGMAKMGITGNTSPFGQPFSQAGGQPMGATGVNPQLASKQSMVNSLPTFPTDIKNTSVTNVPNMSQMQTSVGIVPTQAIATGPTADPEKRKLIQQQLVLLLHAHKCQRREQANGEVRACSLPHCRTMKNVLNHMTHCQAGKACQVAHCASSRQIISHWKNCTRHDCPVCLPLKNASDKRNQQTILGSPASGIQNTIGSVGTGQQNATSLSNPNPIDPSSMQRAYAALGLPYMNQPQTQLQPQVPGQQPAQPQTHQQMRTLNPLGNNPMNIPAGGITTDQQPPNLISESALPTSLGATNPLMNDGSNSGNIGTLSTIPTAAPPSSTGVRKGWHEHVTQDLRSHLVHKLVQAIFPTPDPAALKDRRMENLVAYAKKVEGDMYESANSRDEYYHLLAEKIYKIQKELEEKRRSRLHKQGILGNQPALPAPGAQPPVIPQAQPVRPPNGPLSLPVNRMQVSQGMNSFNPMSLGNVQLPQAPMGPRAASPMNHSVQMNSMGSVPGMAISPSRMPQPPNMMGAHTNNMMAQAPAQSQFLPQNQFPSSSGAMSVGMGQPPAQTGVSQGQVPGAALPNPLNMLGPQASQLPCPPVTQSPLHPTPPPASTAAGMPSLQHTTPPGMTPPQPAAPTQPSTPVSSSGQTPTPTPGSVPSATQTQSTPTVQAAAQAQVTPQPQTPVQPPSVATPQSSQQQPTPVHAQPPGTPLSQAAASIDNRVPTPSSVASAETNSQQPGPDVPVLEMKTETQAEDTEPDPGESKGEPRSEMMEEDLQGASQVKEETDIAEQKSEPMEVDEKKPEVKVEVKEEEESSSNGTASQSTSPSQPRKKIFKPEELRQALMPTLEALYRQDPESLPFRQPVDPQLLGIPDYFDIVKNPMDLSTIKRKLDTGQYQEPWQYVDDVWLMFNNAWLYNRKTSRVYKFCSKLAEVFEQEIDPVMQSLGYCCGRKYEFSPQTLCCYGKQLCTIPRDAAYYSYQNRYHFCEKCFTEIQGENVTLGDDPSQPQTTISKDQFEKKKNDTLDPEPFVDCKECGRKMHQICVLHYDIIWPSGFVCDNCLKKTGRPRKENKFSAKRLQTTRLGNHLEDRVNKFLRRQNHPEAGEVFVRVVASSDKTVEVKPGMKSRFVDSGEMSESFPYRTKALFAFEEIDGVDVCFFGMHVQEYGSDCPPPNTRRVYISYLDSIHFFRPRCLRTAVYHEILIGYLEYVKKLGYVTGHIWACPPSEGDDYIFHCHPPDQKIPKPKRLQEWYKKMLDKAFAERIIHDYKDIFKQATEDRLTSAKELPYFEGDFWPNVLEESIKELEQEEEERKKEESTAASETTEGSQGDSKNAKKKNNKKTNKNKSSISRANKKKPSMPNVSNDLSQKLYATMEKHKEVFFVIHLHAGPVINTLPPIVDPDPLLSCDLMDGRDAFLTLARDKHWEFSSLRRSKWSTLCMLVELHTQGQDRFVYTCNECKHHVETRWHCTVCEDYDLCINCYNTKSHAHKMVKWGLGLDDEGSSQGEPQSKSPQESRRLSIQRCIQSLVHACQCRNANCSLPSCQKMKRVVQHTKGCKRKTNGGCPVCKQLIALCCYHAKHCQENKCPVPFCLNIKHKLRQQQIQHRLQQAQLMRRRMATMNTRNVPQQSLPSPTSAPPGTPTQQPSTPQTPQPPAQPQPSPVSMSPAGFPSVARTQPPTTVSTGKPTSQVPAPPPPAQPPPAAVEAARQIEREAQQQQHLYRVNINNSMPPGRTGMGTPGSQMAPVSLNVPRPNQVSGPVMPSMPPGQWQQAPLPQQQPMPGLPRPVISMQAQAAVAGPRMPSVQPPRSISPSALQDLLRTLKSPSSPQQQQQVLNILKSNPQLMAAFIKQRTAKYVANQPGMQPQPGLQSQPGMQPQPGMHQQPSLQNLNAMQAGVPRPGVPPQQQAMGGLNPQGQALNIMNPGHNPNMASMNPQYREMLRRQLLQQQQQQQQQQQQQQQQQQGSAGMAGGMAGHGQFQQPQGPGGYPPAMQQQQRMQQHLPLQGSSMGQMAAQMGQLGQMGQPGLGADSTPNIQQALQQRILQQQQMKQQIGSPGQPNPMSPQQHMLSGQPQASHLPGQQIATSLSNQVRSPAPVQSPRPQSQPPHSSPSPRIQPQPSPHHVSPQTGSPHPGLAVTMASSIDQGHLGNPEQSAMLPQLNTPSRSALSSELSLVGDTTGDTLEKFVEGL

`COc1ccc(C2(C(=O)N(C)CC(=O)Nc3cccc4[nH]ncc34)CCCCC2)cc1` [Example 2, N-[2-(1H-Indazol-4-ylamino)-2-oxoethyl]-1-(4-methoxyphenyl)-N-methylcyclohexanecarboxamide]: the IC50 (as a rule, the concentration that inhibits the measured activity by half) worked out at 1010 nM with H3K27Ac, 193 nM against EP300 and 128 nM on CREBBP.
As for `COc1ccc(C2(C(=O)N3CCCC3C(=O)Nc3cccc4c3cnn4C)CCCCC2)cc1` (stereo not drawn) [Example 3, 1-{[1-(4-Methoxyphenyl)cyclohexyl]carbonyl}-N-(1-methyl-1H-indazol-4-yl)prolinamide], the IC50 in the experiment with H3K27Ac is 10600 nM.
On the same count and under the same terms, the value for `O=C(O)c1ccc(C2(C(=O)N3CCC[C@@H]3C(=O)Nc3cccc4[nH]ncc34)CCCC2)cc1` [Example 4, 4-(1-{[(2R)-2-(1H-Indazol-4-ylcarbamoyl)pyrrolidin-1-yl]carbonyl}cyclopentyl)benzoic acid] was 11700 nM.
Consider `COc1ccc(C2(C(=O)N3C[C@H](O)C[C@@H]3C(=O)Nc3cccc4[nH]ncc34)CCCC2)cc1` [Example 5, (4R)-4-Hydroxy-N-1H-indazol-4-yl-1-{[1-(4-methoxyphenyl)cyclopentyl]carbonyl}-D-prolinamide], for which the values for the IC50 with H3K27Ac, against EP300 and against CREBBP were 1030 nM, 259 nM and 334 nM, respectively.
With `COc1ccc(C2(C(=O)N3C[C@H](OC)C[C@@H]3C(=O)Nc3cccc4[nH]ncc34)CCCC2)cc1` [Example 6, (4R)—N-1H-Indazol-4-yl-4-methoxy-1-{[1-(4-methoxyphenyl)cyclopentyl]carbonyl}-D-prolinamide], the IC50 with H3K27Ac was 9640 nM.
Still for that read-out and setting: the value for `COc1ccc(C2(C(=O)N3C[C@@H](F)C[C@@H]3C(=O)Nc3cccc4[nH]ncc34)CCCC2)cc1` [Example 7, (4S)-4-Fluoro-N-1H-indazol-4-yl-1-{[1-(4-methoxyphenyl)cyclopentyl]carbonyl}-D-prolinamide] was 8750 nM; that for `COc1ccc(C2(C(=O)N3CCC[C@@H]3C(=O)Nc3ccccc3)CCCC2)cc1` [Example 8, 1-{[1-(4-Methoxyphenyl)cyclopentyl]carbonyl}-N-phenyl-D-prolinamide] was 6530 nM.
The same measure, in the same setting: next, `COc1ccc(C2(C(=O)N3CCC[C@@H]3C(=O)Nc3cccc(C)c3)CCCC2)cc1` [Example 9, 1-{[1-(4-Methoxyphenyl)cyclopentyl]carbonyl}-N-(3-methylphenyl)-D-prolinamide]: 8450 nM.
Same read-out and setting: the value for `COc1ccc(C2(C(=O)N3CCC[C@@H]3C(=O)Nc3ccccc3OC)CCCC2)cc1` [Example 10, N-(2-Methoxyphenyl)-1-{[1-(4-methoxyphenyl)cyclopentyl]carbonyl}-D-prolinamide] was 6110 nM; that for `COc1ccc(C2(C(=O)N3CCC[C@@H]3C(=O)Nc3ccncc3)CCCC2)cc1` [Example 11, 1-{[1-(4-Methoxyphenyl)cyclopentyl]carbonyl}-N-pyridin-4-yl-D-prolinamide] was 8060 nM.
Turning to `COc1ccc(C2(C(=O)N3CCC[C@@H]3C(=O)Nc3ccc(OCc4ccccc4)cc3)CCCC2)cc1` [Example 12, N-[4-(Benzyloxy)phenyl]-1-{[1-(4-methoxyphenyl)cyclopentyl]carbonyl}-D-prolinamide], the IC50 in the experiment with H3K27Ac stood at 2580 nM.
The same measure, in the same setting: the value for `COc1ccc(C2(C(=O)N3CCC[C@@H]3C(=O)Nc3cccc4ccccc34)CCCC2)cc1` [Example 13, 1-{[1-(4-Methoxyphenyl)cyclopentyl]carbonyl}-N-naphthalen-1-yl-D-prolinamide] was 3990 nM.
Still for that read-out and setting: the value for `COc1ccc(C2(C(=O)N3CCC[C@@H]3C(=O)Nc3cccc4cccnc34)CCCC2)cc1` [Example 14, 1-{[1-(4-Methoxyphenyl)cyclopentyl]carbonyl}-N-quinolin-8-yl-D-prolinamide] was 6670 nM.
`COc1ccc(C2(C(=O)N3CCC[C@@H]3C(=O)Nc3cccc(N)n3)CCCC2)cc1` [Example 15, N-(6-Aminopyridin-2-yl)-1-{[1-(4-methoxyphenyl)cyclopentyl]carbonyl}-D-prolinamide]: the IC50 with H3K27Ac worked out at 908 nM; at EP300, 218 nM; at CREBBP, 353 nM.
Taken in the same sequence, the figures for `COc1ccc(C2(C(=O)N3CCC[C@@H]3C(=O)Nc3cccc4[nH]ccc34)CCCC2)cc1` [Example 16, N-1H-Indol-4-yl-1-{[1-(4-methoxyphenyl)cyclopentyl]carbonyl}-D-prolinamide] were 304 nM, 61 nM and 95 nM.
The corresponding values for `COc1ccc(C2(C(=O)N3CCC[C@@H]3C(=O)Nc3ccc4[nH]ccc4c3)CCCC2)cc1` [Example 17, N-1H-Indol-5-yl-1-{[1-(4-methoxyphenyl)cyclopentyl]carbonyl}-D-prolinamide] are 709 nM, 213 nM and 237 nM.
Consider `COc1ccc(C2(C(=O)N3CCC[C@@H]3C(=O)Nc3ccc4c(c3)CCC(=O)N4)CCCC2)cc1` [Example 18, l-{[1-(4-Methoxyphenyl)cyclopentyl]carbonyl}-N-(2-oxo-1,2,3,4-tetrahydroquinolin-6-yl)-D-prolinamide], for which the IC50 in the experiment with H3K27Ac is 3340 nM.
In the case of `COc1ccc(C2(C(=O)N3CCC[C@@H]3C(=O)Nc3ncccn3)CCCC2)cc1` [Example 20, 1-{[1-(4-Methoxyphenyl)cyclopentyl]carbonyl}-N-pyrimidin-2-yl-D-prolinamide], in the experiment with H3K27Ac, the IC50 was determined as 7720 nM.
On the same count and under the same terms, the value for `COc1ccc(C2(C(=O)N3[C@H](C)CC[C@@H]3C(=O)Nc3cccc4[nH]ncc34)CCCC2)cc1` [Example 25, (5R)—N-1H-Indazol-4-yl-1-{[1-(4-methoxyphenyl)cyclopentyl]carbonyl}-5-methyl-D-prolinamide] was 5320 nM.
Still for that read-out and setting: next, `COc1ccc(C2(C(=O)N3CCCCC[C@@H]3C(=O)Nc3ccccc3C#N)CCCC2)cc1` [Example 27, (2R)—N-(2-Cyanophenyl)-1-{[1-(4-methoxyphenyl)cyclopentyl]carbonyl}azepan-2-carboxamide]: 2530 nM.
For the molecule `COc1ccc(C2(C(=O)N3C[S+]([O-])C[C@@H]3C(=O)Nc3cccc4[nH]ncc34)CCCC2)cc1` (stereo partly drawn) [Example 28b, (4S)—N-(1H-Indazol-4-yl)-3-{[1-(4-methoxyphenyl)cyclopentyl]carbonyl}-1,3-thiazolidin-4-carboxamide 1-oxide], the half-inhibitory concentration (IC50) in the experiment on H3K27Ac worked out at 6880 nM.
Same read-out and setting: next, `C#C[C@@]1(O)C[C@H](C(=O)Nc2ccccc2Cl)N(C(=O)C2(c3ccc(OC)cc3)CCCC2)C1` [Example 32, (4S)—N-(2-Chlorophenyl)-4-ethynyl-4-hydroxy-1-{[1-(4-methoxyphenyl)cyclopentyl]carbonyl}-D-prolinamide]: 1650 nM; `COc1ccc(C2(C(=O)N3C[C@H](F)C[C@@H]3C(=O)Nc3cccc4[nH]ncc34)CCCOC2)cc1` (stereo partly drawn) [Example 42, (4R)-4-Fluoro-N-1H-indazol-4-yl-1-{[3-(4-methoxyphenyl)tetrahydro-2H-pyran-3-yl]carbonyl}-D-prolinamide]: 4010 nM; `COc1ccc(C2(C(=O)N3C[C@H](F)C[C@@H]3C(=O)Nc3cccc4[nH]ncc34)CCCCO2)cc1` (stereo partly drawn) [Example 43, (4R)-4-Fluoro-N-1H-indazol-4-yl-1-{[2-(4-methoxyphenyl)tetrahydro-2H-pyran-2-yl]carbonyl}-D-prolinamide]: 6450 nM.
Still for that read-out and setting: the value for `COc1ccc(C2(C(=O)N3CCC[C@@H]3C(=O)Nc3cccc4[nH]ncc34)CCC(F)(F)CC2)cc1` [Example 55] was 2020 nM.
Consider `COc1ccc(C2(C(=O)N3CCC[C@@H]3C(=O)Nc3cccc4[nH]cnc34)CCCC2)cc1` [Example 59], for which, in the experiment with H3K27Ac, the IC50 turned out to be 2500 nM.
